Data set [1] concerns HepG2-A16-CD81EGFP cells. The settings on record: human, 50 uM.
In data set [2] the test system is HepG2-A16-CD81EGFP cells. Briefly: cells. The settings on record: Homo sapiens, HepG2, read-out: % inhibition.
In data set [3] the test system is Plasmodium berghei (Pb-Luc) exoerythrocytic-stage parasites. In words: microbe, parasite or virus in culture.
Setting [4] is: read-out: Inhibition% @ 50 uM rep1.
Setting [5] is: read-out: Inhibition% @ 50 uM rep2.

Like-named read-outs stand apart in the source and are kept apart here.

Usually inhibition stands for the relative decrease from the control value, in per cent. Consider `CCOc1cc2c(cc1OCC)C(c1cc(Cl)c(O)c(OCC)c1)NCC2` (stereo not drawn) [MMV000481], for which the “HepG2 Tox% @ 50 uM rep1” value in data set [1] stood at 20%. Moreover, the results for the inhibition at 50 µM in data set [2], in data set [3] (setting [4]) and in data set [3] (setting [5]) were 20.4%, 73% and 75%, respectively.

Turning to `CCN(CC)c1cc(C)c2cc(NC(=O)c3cccc(OC)c3)ccc2n1` [MMV000498], the “HepG2 Tox% @ 50 uM rep1” value in data set [1] amounted to 100%. Besides, the “HepG2 Tox% @ 50 uM rep2” value in data set [1] turned out to be 101%. Besides, the inhibition at 50 µM in data set [2] came to 99.5%; in data set [3] (setting [4]), 104%; in data set [3] (setting [5]) it was 106%.

With `CCc1ccc(Nc2cc(C)c3ccc(O)cc3n2)cc1` [MMV000570], the “HepG2 Tox% @ 50 uM rep2” value in data set [1] turned out to be 100%. Besides, the inhibition at 50 µM came out at 98.1% in data set [2], 103% in data set [3] (setting [4]) and 105% in data set [3] (setting [5]).

For `COc1ccc(Nc2nc(NCc3ccccc3)c3ccccc3n2)cc1` [MMV000963], the “HepG2 Tox% @ 50 uM rep2” value in data set [1] turned out to be 100%. The inhibition at 50 µM in data set [2] is 99.3%; in data set [3] (setting [4]), 103%; in data set [3] (setting [5]), 106%.

Regarding `CCOc1cccc2sc(N(Cc3cccnc3)C(=O)C3CCCCC3)nc12` [MMV001230], in data set [1], the “HepG2 Tox% @ 50 uM rep2” value is 99%. Also, the inhibition at 50 µM in data set [2] is 97.3%; in data set [3] (setting [4]) it was 102%; in data set [3] (setting [5]) it was 103%.

`COc1ccc(CCNC(=O)c2cc(S(=O)(=O)N3CC(C)CC(C)C3)ccc2Sc2ccc(F)cc2)cc1OC` (stereo not drawn) [MMV007557]: in data set [1], the “HepG2 Tox% @ 50 uM rep1” value is listed as -12%. Besides, the inhibition at 50 µM in data set [2] was -11.7%; in data set [3] (setting [4]) it was 19%; in data set [3] (setting [5]) it was 15%.

With `COc1ccc2nc(C)cc(Nc3ccc(Cl)cc3)c2c1` [MMV007875], the “HepG2 Tox% @ 50 uM rep2” value in data set [1] came out at 99%. For the same compound, the inhibition at 50 µM was found to be 94.8% in data set [2], 99% in data set [3] (setting [4]) and 101% in data set [3] (setting [5]).

`OC(CNC1CCCCC1)Cn1c2ccccc2c2ccccc21` (stereo not drawn) [MMV009063]: the “HepG2 Tox% @ 50 uM rep2” value in data set [1] is 101%. The figures for the inhibition at 50 µM in data set [2], in data set [3] (setting [4]) and in data set [3] (setting [5]) were 98.6%, 104% and 105%, respectively.

As to `COc1cccc(Nc2nc(NCCO)c3ccccc3n2)c1` [MMV011944], the “HepG2 Tox% @ 50 uM rep1” value in data set [1] was determined as 100%. Also, in data set [1], the “HepG2 Tox% @ 50 uM rep2” value came to 101%. Also, the figures for the inhibition at 50 µM in data set [2], in data set [3] (setting [4]) and in data set [3] (setting [5]) were 99.7%, 103% and 106%, respectively.

As to `COCCNCC(O)Cn1c2ccc(Cl)cc2c2cc(Cl)ccc21` (stereo not drawn) [MMV019017], the “HepG2 Tox% @ 50 uM rep2” value in data set [1] was found to be 99%. The inhibition at 50 µM in data set [2] came to 96.7%; in data set [3] (setting [4]) it was 103%; in data set [3] (setting [5]), 102%.

`Cn1c(=O)c2cc(C(=O)NCCCN3CCCCCC3)sc2c2ccccc21` [MMV019313]: the “HepG2 Tox% @ 50 uM rep1” value in data set [1] worked out at 100%. In addition, the inhibition at 50 µM turned out to be 99.9% in data set [2], 104% in data set [3] (setting [4]) and 106% in data set [3] (setting [5]).

For the compound `CCN1CCN(Cc2ccc(NC(=O)c3cc4ccc5cccnc5c4[nH]3)cc2)CC1` [MMV020548], the “HepG2 Tox% @ 50 uM rep2” value in data set [1] is on record as 100%. Besides, the results for the inhibition at 50 µM in data set [2], in data set [3] (setting [4]) and in data set [3] (setting [5]) were 98.4%, 102% and 106%, respectively.

`O=C(Nc1ccc(CN2CCOCC2)cc1)c1ccc(-c2cc(Cl)ccc2Cl)o1` [MMV020651]: the “HepG2 Tox% @ 50 uM rep2” value in data set [1] is listed as 96%. Besides, the values for the inhibition at 50 µM in data set [2], in data set [3] (setting [4]) and in data set [3] (setting [5]) were 93.9%, 100% and 99%, respectively.

As to `CCC(=O)Nc1nnc(Cc2ccc(OC)c(OC)c2)s1` [MMV020942], the “HepG2 Tox% @ 50 uM rep1” value in data set [1] is reported as -26%. The inhibition at 50 µM was -25.5% in data set [2], -19% in data set [3] (setting [4]) and -37% in data set [3] (setting [5]).

As to `CN(C)c1ccc(N=Cc2ccc(N3CCOCC3)cc2)cc1` [MMV073843], in data set [1], the “HepG2 Tox% @ 50 uM rep1” value is -8%. The values for the inhibition at 50 µM in data set [2], in data set [3] (setting [4]) and in data set [3] (setting [5]) were -8.32%, 88% and 83%, respectively.

With `CCOc1ccc(-n2cc(-c3ccccc3)c3c(SCc4cc(C)ccc4C)ncnc32)cc1` [MMV085471], the “HepG2 Tox% @ 50 uM rep1” value in data set [1] is on record as -12%. Also, the values for the inhibition at 50 µM in data set [2], in data set [3] (setting [4]) and in data set [3] (setting [5]) were -12.2%, 11% and -7%, respectively.

Take `O=C(NC1CCN(Cc2ccccc2)CC1)c1cc2nc(-c3ccc(Cl)s3)cc(C(F)(F)F)n2n1` [MMV396635]: the “HepG2 Tox% @ 50 uM rep1” value in data set [1] is -30%. Further, the inhibition at 50 µM was -29.6% in data set [2], 7.6% in data set [3] (setting [4]) and 24% in data set [3] (setting [5]).

Take `CC1(c2ccccc2)Nc2ccccc2-c2nc3ccccc3n21` (stereo not drawn) [MMV396715]: in data set [1], the “HepG2 Tox% @ 50 uM rep2” value is 102%. Also, the results for the inhibition at 50 µM in data set [2], in data set [3] (setting [4]) and in data set [3] (setting [5]) were 98.6%, 104% and 106%, respectively.

Turning to `Oc1c(C(Nc2ccccn2)c2cccc(Oc3ccccc3)c2)ccc2cccnc12` (stereo not drawn) [MMV665814], the “HepG2 Tox% @ 50 uM rep1” value in data set [1] is reported as -17%. In addition, the inhibition at 50 µM was -17.3% in data set [2], -33% in data set [3] (setting [4]) and -6% in data set [3] (setting [5]).

Take `CCC(c1ccccc1)c1nn2c(-c3cccs3)nnc2s1` (stereo not drawn) [MMV665876]: in data set [1], the “HepG2 Tox% @ 50 uM rep2” value worked out at 96%. For the same compound, the inhibition at 50 µM in data set [2] was determined as 93.6%; in data set [3] (setting [4]), 99%; in data set [3] (setting [5]) it was 103%.

`O=C(Nc1cccc(-c2nc3ccccc3[nH]2)c1)c1cccc(NC(=O)c2ccco2)c1` [MMV665883]: the “HepG2 Tox% @ 50 uM rep2” value in data set [1] worked out at 99%. In addition, the figures for the inhibition at 50 µM in data set [2], in data set [3] (setting [4]) and in data set [3] (setting [5]) were 97.2%, 101% and 102%, respectively.

Take `O=C(Nc1ccccc1O)c1ccc(Oc2cccc(C(=O)Nc3ccccc3O)c2)cc1` [MMV665888]: the “HepG2 Tox% @ 50 uM rep2” value in data set [1] was found to be 100%. For the same compound, the figures for the inhibition at 50 µM in data set [2], in data set [3] (setting [4]) and in data set [3] (setting [5]) were 98.7%, 102% and 104%, respectively.

`COc1ccc(N2CCN(C(CNC(=O)CC(C)(C)C)c3ccc4c(c3)OCO4)CC2)cc1` (stereo not drawn) [MMV665908]: the “HepG2 Tox% @ 50 uM rep1” value in data set [1] is on record as -10%. In addition, the values for the inhibition at 50 µM in data set [2], in data set [3] (setting [4]) and in data set [3] (setting [5]) were -9.68%, 61% and 66%, respectively.

In the case of `CCC(C)NCC(O)(c1ccc(Cl)cc1)c1ccc(Cl)cc1` (stereo not drawn) [MMV665928], in data set [1], the “HepG2 Tox% @ 50 uM rep2” value came out at 102%. In addition, the inhibition at 50 µM in data set [2] amounted to 99.2%; in data set [3] (setting [4]) it was 104%; in data set [3] (setting [5]), 106%.

Regarding `O=C(NCC1Cc2cccc(-c3ccncc3)c2O1)c1csc2c1CCCC2` (stereo not drawn) [MMV665954], the “HepG2 Tox% @ 50 uM rep2” value in data set [1] is 98%. Moreover, the inhibition at 50 µM in data set [2] was 95.9%; in data set [3] (setting [4]) it was 100%; in data set [3] (setting [5]), 102%.

Take `CCCCCCc1cc2cc(-c3nc4ccccc4[nH]3)c(=Nc3ccccc3C)oc2cc1O` [MMV666597]: the inhibition at 50 µM in data set [2] amounted to 85.4%; in data set [3] (setting [4]) it was 102%; in data set [3] (setting [5]), 103%.

In the case of `CCCCCCc1cc2cc(-c3csc(C=Cc4ccccc4)n3)c(=O)oc2cc1O` [MMV666692], the inhibition at 50 µM in data set [2] came to 99.5%; in data set [3] (setting [4]), 104%; in data set [3] (setting [5]), 104%.

With `COC(=O)c1ccc(Cl)c2c1C1C=CCC1C(c1cccc3ccccc13)N2` (stereo not drawn) [MMV667489], the inhibition at 50 µM worked out at 61.4% in data set [2], 97% in data set [3] (setting [4]) and 99% in data set [3] (setting [5]).
